From patent US20170260186A1, “PROCESS OF PREPARING AMORPHOUS FORM OF IDELALISIB” (ScinoPharm Taiwan, Ltd., priority 2016, published 2017)

Assays:
[1] = Dynamic Vapor Sorption (DVS) water-solid interaction; type: physicochemical
Protocol: Dynamic Vapor Sorption (DVS) The sample was placed into the DVS sample pan and dried under a stream of dry nitrogen at 25° C. with 0% RH. The moisture was gradually introduced into the system with a 10% RH increment up to 90% RH and the humidity was then decreased in a similar trend for desorption phase. The sorption and desorption data were collected with equilibration set to dm/dt 0.004%/min for 5 min/step. The minimum and maximum time for each step were set to 10 and 360 min. Two sorption/desorption cycles were performed.

[2] = preliminary physicochemical stability study in recommended packaging; details: 3 months
Protocol: The double packed LDPE bag was then placed inside an aluminum foil bag with appropriate amount of desiccant between the LDPE bag and the aluminum foil bag. The aluminum bag package was then placed in a High-Density PolyEthylene (HDPE) container and stored at temperature below 25° C.

[3] = accelerated condition 40° C./75% RH
[4] = long term storage condition 25° C./60% RH

Structure (SMILES): CC[C@H](Nc1ncnc2nc[nH]c12)c1nc2cccc(F)c2c(=O)n1-c1ccccc1 [amorphous idelalisib, (S)-2-(1-(9H-purin-6-ylamino)propyl)-5-fluoro-3-phenylquinazolin-4(3H)-one]
- hygroscopicity (DVS result) ([1]; DVS isotherm, FIG. 4): hygroscopic material
- moisture uptake ([1]; DVS, humidity changing from 0% RH to 90% RH, 25° C.): approximately 8.9%
- solid form [2, 3]: remained as amorphous
- water content change [2, 3]: not increased
- solid form [2, 4]: remained as amorphous
- water content change [2, 4]: not increased
